Reference: patent US20250332212A1, “METHOD FOR TREATING OR PREVENTING ALOPECIA” (Suzhou Mingren Pharmaceutical Biotechnology Co., Ltd., priority 2024, published 2025)
Square brackets hold non-standard residues; d marks the D form. Ends that are not written are not given here. pS = N[C@@H](COP(=O)(O)O)C(=O)O

Tests used:
[1] = test system: TP-induced AGA model mice; assay: TP-induced AGA model, Animal model II (JP1 topical, dose-effect); type: in vivo, C57BL/6J male mice; conditions: for hair coverage on the 18th day: twice a day
Experimental: To prolong the action time of JP1, the design scheme of the animal model in this example adjusted the once-a-day of the first model to twice-a-day administration with an interval of 6 h (FIG. 6A). For details of the experiments, please refer to “Animal model II” of “1. TP-induced AGA model” in “Experimental Methods” below.
The mice used in this study were 5-week-old C57BL/6J male mice (18-20 g), which were purchased from Jiangsu Jicui Pharmachem Biotechnology Co. All the animals used in the experiments were housed in the SPF-level environment of the Medical Laboratory Animal Center of Nanjing Medical University, and the relevant animal experimental operations were approved by the Animal Ethics Committee of Nanjing Medical University. The control group was left untreated, and the other groups were injected with TP subcutaneously on their backs every day. Two weeks later, the hair on the backs of the mice was shaved with an electric razor, covering an area of 2 cm×4 cm, and then the residual hair was removed with a hair removal cream. The subcutaneous injections of TP on the shaved backs of the mice in the AGA model was continued until the end of the experimental period, and the administration of TP in each of the treatment groups was begun on the 1st day of the dehairing process.
In addition to the normal control group (denoted as control) n=20, all mice injected subcutaneously with TP were randomly divided into the following groups (n=20): the model group (denoted as model), the 0.1% JP1, the 0.5% JP1, the 1% JP1 (all administered by topical dermal application), and the 5% minoxidil group.
Mice were weighed every two days during the experiment. Skin color was assessed against skin score charts. The mice were euthanized and treated at the end of the experiment, and skin tissues were taken from the dorsal decorticated area of the mice. Some of the tissues were fixed with 4% paraformaldehyde solution and then paraffin sections were made for H&E or immunofluorescence staining, etc., and some of the tissues were stored in the refrigerator at −80° C. for relevant molecular expression assays (qRT-PCR, Western Blot, IP, etc.).
8.1) Sampling and fixation: After the experiment, skin tissue was taken from the depilated area on the back of the mouse and placed in a 10 mL EP tube. 4% paraformaldehyde was added to the EP tube, and all tissues were immersed to denature and coagulate the proteins of the skin tissue. The original morphology and structure of the cells were maintained.
8.6) H&E staining: the sections pretreated in distilled water were put into aqueous hematoxylin solution for a few minutes for staining. The color was separated in acid water and ammonia for a few seconds each. After rinsing in running water for 1 h, the sections were placed in distilled water for a few moments. The sections were dehydrated in 70% and 90% alcohol for 10 min each, and stained in alcoholic eosin stain for 2-3 min.

SRD5A2 = assay: qPCR of SRD5A2 mRNA in skin tissue of model mice; type: in vivo, mouse; conditions: model II, P>0.05
Experimental: 6.1) Sample preparation: 15-20 mg of mouse skin tissue was placed in a 1.5 mL centrifuge tube, and 600 μL of pre-cooled lysate was quickly added, and homogenized with an electric homogenizer. The homogenate obtained was blown gently 10 times, left at room temperature for 3-5 min, then centrifuged at 14,000×g for 5 min, and the supernatant was transferred to a new centrifuge tube with a pipette gun of suitable volume.
6.10) Reverse transcribe the RNA into cDNA according to the instructions of the reverse transcription kit, and then carry out subsequent experiments or store at −20° C. for later use.
(§1) 7.1) Dilute the specific gene amplification primers to 10 µM in ddH2O, prepare the qPCR reaction system according to the instructions in the kit and add them sequentially into a 384-well plate.
(§2) 7.3) Relative mRNA expression levels of genes were calculated by the […] relative quantification method using GAPDH as an internal reference.

Wnt signaling pathway = assay: Proteomics and protein phosphorylation sequencing of skin tissue (KEGG, GSEA); type: in vivo, mouse
Experimental: Appropriate amounts of mouse skin tissues (n=3) from the model group and 1% JP1 group were added to a mortar pre-cooled with liquid nitrogen, and ground thoroughly with liquid nitrogen into powders. The samples were separately added to lysis buffer and lysed by ultrasonication. The centrifugation was performed at 4° C., 12,000×g for 10 min, and protein concentration was determined by BCA. Trypsin digestion was followed by liquid chromatography-mass spectrometry serial analysis.

Wnt10a = Wnt10a expression in skin tissue (qPCR, Western blotting); type: in vivo, mouse
Experimental: (§3) To illustrate the regulation of JP1 on the upstream Wnt ligand of β-catenin, this example intersected classical signaling pathway-related Wnt ligands and AGA-related Wnt ligands, and screened out the related Wnt ligands, including Wnt1, Wnt3a, Wnt7b, Wnt10a, and Wnt10b. In this example, qPCR was used to detect the mRNA expression of these Wnt molecules in the skin tissue of the mouse model in Example 6.
(§4) 4.1) Protein extraction: 70 mg of skin tissue was placed in a 1.5 mL centrifuge tube, and 500 μL of tissue lysate RIPA containing protease inhibitor and phosphatase inhibitor was added. The tissue was placed on an ice box, pulverized by a tissue grinder, and then ultrasonically crushed to obtain a tissue suspension, which was then placed in a rotary windmill at 4° C. to be lysed for 2 h. The centrifuge was set at 12,000×g, 4° C., centrifuged for 15 min, and the supernatant was collected as the total protein.
5.1) Heating of protein samples: the total protein content of each tissue was 50 μg; calculate the volume of a corresponding protein sample, make up the volume with saline to 16 μL, then add 4 μL of 5×SDS sampling buffer, heat at 100° C. for 5 min, and then cool at room temperature and store at −20° C. […]
as §2

Wnt1, Wnt3a, Wnt7b = assay: qPCR of the other Wnt molecules in skin tissue; type: in vivo, mouse; conditions: P>0.05
Experimental: as §3, §1, §2

p-MEK = assay: Immunoblotting of p-MEK in skin tissue; type: in vivo, mouse; conditions: P<0.05, dose-effect relationship
Experimental: as §4
5.1) Heating of protein samples: the total protein content of each tissue was 50 μg; calculate the volume of a corresponding protein sample, make up the volume with saline to 16 μL, then add 4 μL of 5×SDS sampling buffer, heat at 100° C. for 5 min, and then cool at room temperature and store at −20° C.
5.7) Primary antibody incubation: the cut protein bands were placed into the corresponding primary antibody and incubated at 4° C. on a shaker overnight, washed with TBST 3 times for 10 min/time.

[2] = JP1 permeability experiment (FITC-JP1 applied to depilated skin); conditions: 1% FITC-JP1 solution applied to dorsal depilated area
Experimental: In this Example, to elucidate the mechanism of JP1 penetrating the skin and acting on the hair follicle, a 14-day AGA modeling was performed according to the model design strategy of Example 1 above. Thereafter, a 1% FITC-JP1 solution was applied to the dorsal depilated area of the mice in a light-avoidance environment. Five time points were set at 0.5, 1, 2, 4 and 8 h for observation. The fresh skin tissue was made into frozen sections, and the penetration pathway of JP1 in the skin tissue and the amount of aggregation in the hair follicles were observed under an inverted fluorescence microscope.
15 C57BL/6J male mice were dorsally depilated after two weeks of continuous TP injection. A 1% FITC-JP1 solution was applied locally to the depilated area of the mice on the 1st day after depilation, no light, in five groups of 0.5 h, 1 h, 2 h, 4 h and 8 h (n=3).
The back skin was removed at the corresponding time points and fixed in 4% paraformaldehyde. After 48 h of fixation, the skin tissue was successively dehydrated in 20% and 30% sucrose solution for 2 days each. After gradient dehydration, sections (20 μm) were made using a frozen microtome. Zeiss inverted fluorescence microscope was used to photograph the fluorescent sections.

Question: With FPGSDRF-RGD (FPG[pS]DRFRGD) [JP1] as the substance, how does the “hair coverage on the 18th day” value ([1]; 0.1% JP1 topical) read?
Answer: The value was “lowest”.

Question: What about the “hair bulb size on day 11 among groups” value ([1]; 1% JP1 group) of the same substance?
Answer: The value was “largest”.

Question: And the “hair coverage on the 18th day” value ([1]; 1% JP1 topical)?
Answer: Its value is “highest hair coverage”.

Question: What about the “hair follicle phase on day 11” value ([1]; H&E longitudinal, model group just entered the anagen phase) of the same substance?
Answer: The value was “mid-growth phase”.

Question: And the “total number of hair follicles vs model group” value ([1]; H&E transverse sections, day 11)?
Answer: Its value is “increased significantly and dose-dependently”.

Question: What about the “effect on growth cycle of hair follicles” value ([1]; JP1 or minoxidil intervention) of the same substance?
Answer: The value was “accelerate the entry of hair follicles into the anagen phase and shorten the resting phase”.

Question: And the “diameter of the hair bulb vs model group” value ([1]; day 11)?
Answer: Its value is “significantly larger than that of the model group”.

Question: What about the “difference between body weights of the groups” value ([1]; during the experiment) of the same substance?
Answer: The value was “no statistically significant difference”.

Question: And the “hair follicle phase on day 32” value ([1]; medium and high dose JP1 group, model group entered the resting phase)?
Answer: Its value is “entered the anagen phase again”.

Question: And the “dose-effect relationship of AGA hair follicle regeneration” value ([1]; skin-coating 0.1%, 0.5%, 1% JP1)?
Answer: Its value is “significant dose-effect relationship”.

Question: What about the “skin color on the 11th day” value ([1]; topical, model group appeared orange) of the same substance?
Answer: Its value is “changed to gray”.

Question: And the “SRD5A2 mRNA level, difference between groups” value (SRD5A2)?
Answer: The value was “no statistically significant difference”.

Question: And the “KEGG signaling pathway analysis, differences 1% JP1 vs model group” value (Wnt signaling pathway; skin tissue, proteomics)?
Answer: The value was “mainly enriched in the Wnt signaling pathway”.

Question: And the “GSEA analysis of Wnt/β-catenin signaling pathway” value (Wnt signaling pathway; skin tissues of JP1-treated mice)?
Answer: The value was “enriched”.

Question: And the Wnt10a protein expression (Wnt10a; Western blotting, dose-dependent)?
Answer: Its Wnt10a protein expression is “significantly up-regulated”.

Question: What about the “Wnt10a mRNA expression” value (Wnt10a; qPCR, P<0.05) of the same substance?
Answer: Its value is “elevated with a dose-effect relationship”.

Question: What about the “mRNA levels of the other Wnt molecules among the groups” value (Wnt1, Wnt3a, Wnt7b) of the same substance?
Answer: The value was “not statistically significant”.

Question: And the p-MEK expression level (p-MEK)?
Answer: The p-MEK expression level was “elevated”.

Question: What about the “fluorescence brightness at 8 h” value [2] of the same substance?
Answer: The value was “obviously weakened”.

Question: What about the “distribution of the drug in skin at 0.5 h” value ([2]; fluorescence) of the same substance?
Answer: The value was “basically covered the surface of the skin”.
